Data taken from publication PMC10815823 (Genes, 2024).
Where two headings read alike, the source gives them in different places. One block for each compound: values may come before it.

Assays:
[1] = single-oral-dose pharmacokinetic study, plasma AVA and metabolite concentrations in pediatric hypercholesterolemia stratified by SLCO1B1 c.521T>C genotype; format: in vivo, human; conditions: for AUC(0-t) / Cmax / Tmax: human, plasma, 10 mg; for Tmax: median (range)
Procedure: A screening physical examination (including sexual maturity rating via Tanner Staging) was performed prior to ingesting AVA. […] Samples were immediately centrifuged at 4 °C for 10 min at 600 g. Plasma was removed and stored at -80 °C until the analysis. […] All analytical reference compounds were purchased from Toronto Research Chemicals at their highest purity. Plasma proteins were precipitated with acetonitrile and centrifuged, and the filtrates were transferred to a new set of clean, labeled microcentrifuge tubes. An aliquot of the extracts was then transferred to a 96-well plate and analyzed by ultra-performance liquid chromatography tandem mass spectrometry (UPLC-MS/MS) with positive-ion electrospray ionization using multiple-reaction monitoring (MRM). […] Gradient elution was optimized with an acetonitrile-water-MeOH gradient: mobile phase A: water: MeOH: acetic acid (v/v/v), 90:10:0.1; mobile phase B: acetonitrile: methanol: acetic acid (v/v/v), 60:40:0.1. […] All the data acquisition and analysis were carried out by Masslynx 4.2 software. […] The individual peak plasma concentration (Cmax) and time to maximal concentration (Tmax) were obtained by direct examination of the plasma AVA concentration versus hour profile. The area under the plasma concentration versus time curve during the sampling period (AUC0-n) was calculated using the mixed log-linear method, where n refers to the final sampling time with quantifiable plasma AVA or AVA metabolite concentrations. […] Pharmacokinetic parameters were examined in JMP® version 14 (SAS, Cary, NC, USA). Pharmacokinetic parameters reflective of plasma AVA concentrations (Cmax, AUC0-n) and the SLCO1B1 genotype ([…] vs. T/C and C/C) were dependent variables and independent variables, respectively. The Kruskal-Wallis test was leveraged to compare the pharmacokinetic parameters related to genotype groups and demographics. Linear regression to examine the association between the AVA AUCn and […] genotype groups, adjusting for BMI z-score, sex and Tanner score, was performed. […] A single Tanner score was computed by averaging each participant's Tanner breast/testicular and Tanner public hair stage scores. AVA AUC0-24 was first modeled as a function of BMI z-score, sex and Tanner score to estimate the proportion of variability that could be accounted for by these participant characteristics. Then, the count of […] alleles was added to the model to estimate the additional variability accounted for. […] Therefore, the Cmax and AUC were normalized to a dose for each individual participant by dividing the exposure parameter value by the actual mg/kg dose received, then multiplying by the mean mg/kg dose for the entire cohort (e.g., participant AUC (ng·hr/mL)/participant dose (mg/kg) × cohort mean dose (mg/kg)).

[2] = pediatric cohorts; cited from earlier work
[3] = female, oral, Table S3, Gender: Female, mean (± SD), read-out: AUC0-24
[4] = oral, Table S1, entire cohort, median (IQR)
[5] = oral, Table S1, entire cohort, median (IQR), read-out: AUC 0-24
[6] = oral, Table S3, Ethnicity: African-American, mean (± SD), read-out: AUC0-24
[7] = oral, Table S3, Ethnicity: White, Hispanic, mean (± SD), read-out: AUC0-24
[8] = oral, Table S3, Ethnicity: White, non-Hispanic, mean (± SD), read-out: AUC0-24
[9] = oral, Table S3, Tanner Breast/Testicular Stage 2, mean (± SD), read-out: AUC0-24
[10] = oral, Table S3, Tanner Breast/Testicular Stage 3, read-out: AUC0-24
[11] = oral, Table S3, Tanner Breast/Testicular Stage 4, mean (± SD), read-out: AUC0-24
[12] = oral, Table S3, Tanner Breast/Testicular Stage 5, mean (± SD), read-out: AUC0-24
[13] = oral, Table S3, Tanner Pubic Stage 1, read-out: AUC0-24
[14] = oral, Table S3, Tanner Pubic Stage 2, mean (± SD), read-out: AUC0-24
[15] = oral, Table S3, Tanner Pubic Stage 3, read-out: AUC0-24
[16] = oral, Table S3, Tanner Pubic Stage 4, mean (± SD), read-out: AUC0-24
[17] = oral, Table S3, Tanner Pubic Stage 5, mean (± SD), read-out: AUC0-24
[18] = po, SLCO1B1 c.521C/C (n = 2), single oral 10 mg dose, mean (±SD)
[19] = po, SLCO1B1 c.521C/C (n = 2), single oral 10 mg dose
[20] = po, SLCO1B1 c.521C/C (n = 2), single oral 10 mg dose, mean (±SD), read-out: AUC0–24
[21] = po, SLCO1B1 c.521T/C (n = 13), single oral 10 mg dose, mean (±SD)
[22] = po, SLCO1B1 c.521T/C (n = 13), single oral 10 mg dose
[23] = po, SLCO1B1 c.521T/C (n = 13), single oral 10 mg dose, mean (±SD), read-out: AUC0–24
[24] = po, SLCO1B1 c.521T/T (n = 13), single oral 10 mg dose, mean (±SD)
[25] = po, SLCO1B1 c.521T/T (n = 13), single oral 10 mg dose
[26] = po, SLCO1B1 c.521T/T (n = 13), single oral 10 mg dose, mean (±SD), read-out: AUC0–24
[27] = po, entire cohort (n = 28), median (IQR), single oral 10 mg dose
[28] = po, entire cohort (n = 28), median (IQR), single oral 10 mg dose, read-out: AUC0–24
[29] = male, oral, Table S3, Gender: Male, mean (± SD), read-out: AUC0-24

SMILES: CC[C@H](C)C(=O)O[C@H]1C[C@H](O)C=C2C=C[C@H](C)[C@H](CC[C@@H](O)C[C@@H](O)CC(=O)O)[C@H]21 [pravastatin]
within-c.521T>C-genotype variability in plasma statin concentration [2]: 8- to 17 fold

SMILES: CC(C)c1c(C(=O)Nc2ccccc2O)c(-c2ccccc2)c(-c2ccc(F)cc2)n1CCC1CC(O)CC(=O)O1 (stereo not shown) [2-Hydroxy Atorvastatin Lactone, 2-hydroxyatorvastatin lactone]
effect of SLCO1B1 c.521T>C genotype on exposure ([1]; Kruskal–Wallis across genotype groups): not affected by genotype | AUC(0-t) [1, 3]: 18 ng·h/mL | Cmax [1, 4]: 1.1 ng/mL | AUC(0-t) [1, 5]: 14.5 ng·h/mL | AUC(0-t) [1, 6]: 16.7 ng·h/mL | AUC(0-t) [1, 7]: 17.2 ng·h/mL | AUC(0-t) [1, 8]: 16.4 ng·h/mL | AUC(0-t) [1, 9]: 31.9 ng·h/mL | AUC(0-t) [1, 10]: 23.4 ng·h/mL | AUC(0-t) [1, 11]: 13.4 ng·h/mL | AUC(0-t) [1, 12]: 12.9 ng·h/mL | AUC(0-t) [1, 13]: 39.2 ng·h/mL | AUC(0-t) [1, 14]: 32.7 ng·h/mL | AUC(0-t) [1, 15]: 12.7 ng·h/mL | AUC(0-t) [1, 16]: 8.5 ng·h/mL | AUC(0-t) [1, 17]: 13.7 ng·h/mL | Cmax [1, 18]: 1.9 ng/mL | Tmax [1, 19]: 7 h | AUC(0-t) [1, 20]: 31 ng·h/mL | Cmax [1, 21]: 1.3 ng/mL | Tmax [1, 22]: 5 h | AUC(0-t) [1, 23]: 17.4 ng·h/mL | Cmax [1, 24]: 1 ng/mL | Tmax [1, 25]: 7 h | AUC(0-t) [1, 26]: 14 ng·h/mL | Cmax [1, 27]: 1.1 ng/mL | AUC(0-t) [1, 28]: 14.5 ng·h/mL | AUC(0-t) [1, 29]: 15.7 ng·h/mL

Now from value to compound, other results behind:

participants with secondary peaking suggestive of entero-hepatic recirculation ([1]; 12 of 28 participants): 43%
SMILES: CC(C)c1c(C(=O)Nc2ccccc2)c(-c2ccccc2)c(-c2ccc(F)cc2)n1CC[C@@H](O)C[C@@H](O)CC(=O)O [Atorvastatin, reference compound]
adverse events ([1]; single oral 10 mg dose, 28 participants): No adverse events were reported

AUC(0-t) [1, 3]: 7.3 ng·h/mL | Cmax [1, 4]: 0.7 ng/mL | AUC(0-t) [1, 5]: 6.4 ng·h/mL | AUC(0-t) [1, 6]: 6.1 ng·h/mL | AUC(0-t) [1, 7]: 7.6 ng·h/mL | AUC(0-t) [1, 8]: 6.9 ng·h/mL | AUC(0-t) [1, 9]: 6 ng·h/mL | AUC(0-t) [1, 10]: 6 ng·h/mL | AUC(0-t) [1, 11]: 4.7 ng·h/mL | AUC(0-t) [1, 12]: 8.1 ng·h/mL | AUC(0-t) [1, 13]: 5.1 ng·h/mL | AUC(0-t) [1, 14]: 6.7 ng·h/mL | AUC(0-t) [1, 15]: 4.1 ng·h/mL | AUC(0-t) [1, 16]: 3.6 ng·h/mL | AUC(0-t) [1, 17]: 8 ng·h/mL | Cmax [1, 18]: 1.3 ng/mL | Tmax [1, 19]: 5 h | AUC(0-t) [1, 20]: 10.8 ng·h/mL | Cmax [1, 21]: 0.8 ng/mL | Tmax [1, 22]: 3 h | AUC(0-t) [1, 23]: 7.5 ng·h/mL | Cmax [1, 24]: 0.7 ng/mL | Tmax [1, 25]: 2 h | AUC(0-t) [1, 26]: 6.2 ng·h/mL | Cmax [1, 27]: 0.7 ng/mL | AUC(0-t) [1, 28]: 6.4 ng·h/mL | AUC(0-t) [1, 29]: 7 ng·h/mL
SMILES: CC(C)c1c(C(=O)Nc2ccccc2O)c(-c2ccccc2)c(-c2ccc(F)cc2)n1CC[C@@H](O)C[C@@H](O)CC(=O)O [2-Hydroxy Atorvastatin, 2-hydroxyatorvastatin]

mean Cmax fold higher, c.521C/C relative to c.521T/T ([1]; c.521C/C (n = 2) vs c.521T/T (n = 13)): 2.1 fold | mean Cmax fold higher, c.521T/C relative to c.521T/T ([1]; c.521T/C (n = 13) vs c.521T/T (n = 13)): 1.6 fold | mean AUC0–24 fold higher, c.521T/C relative to c.521T/T ([1]; c.521T/C vs reference genotype): 1.8 fold | AUC(0-t) [1, 3]: 12.1 ng·h/mL | Cmax [1, 4]: 0.9 ng/mL | AUC(0-t) [1, 5]: 8.7 ng·h/mL | AUC(0-t) [1, 6]: 11.4 ng·h/mL | AUC(0-t) [1, 7]: 13.2 ng·h/mL | AUC(0-t) [1, 8]: 10 ng·h/mL | AUC(0-t) [1, 9]: 23.3 ng·h/mL | AUC(0-t) [1, 10]: 17.3 ng·h/mL | AUC(0-t) [1, 11]: 7.9 ng·h/mL | AUC(0-t) [1, 12]: 8.5 ng·h/mL | AUC(0-t) [1, 13]: 15.4 ng·h/mL | AUC(0-t) [1, 14]: 27.7 ng·h/mL | AUC(0-t) [1, 15]: 7.8 ng·h/mL | AUC(0-t) [1, 16]: 5 ng·h/mL | AUC(0-t) [1, 17]: 8.9 ng·h/mL | Cmax [1, 18]: 1.5 ng/mL | Tmax [1, 19]: 6 h | AUC(0-t) [1, 20]: 27.8 ng·h/mL | Cmax [1, 21]: 1.1 ng/mL | Tmax [1, 22]: 4 h | AUC(0-t) [1, 23]: 13 ng·h/mL | Cmax [1, 24]: 0.7 ng/mL | Tmax [1, 25]: 2.5 h | AUC(0-t) [1, 26]: 7.2 ng·h/mL | Cmax [1, 27]: 0.9 ng/mL | AUC(0-t) [1, 28]: 8.7 ng·h/mL | AUC(0-t) [1, 29]: 10.7 ng·h/mL
SMILES: CC(C)c1c(C(=O)Nc2ccccc2)c(-c2ccccc2)c(-c2ccc(F)cc2)n1CC[C@@H]1C[C@@H](O)CC(=O)O1 [Atorvastatin Lactone, atorvastatin lactone]
